Article PMC3865603 (Cancer chemotherapy and pharmacology, 2011)

What was measured:
[1] = test system: patients with advanced solid tumors; test: Phase I dose escalation: safety, DLT, MTD; format: in vivo, human; settings: for Dyspnea, grade 3: listed as remotely related to study drug
tubulin in PBMCs = test: Microtubule bundle formation; format: in vivo, human; settings: for mean percentage of MBF: RP2D
QTcB interval = test: 12-lead ECG, QTcB interval; format: in vivo, human; settings: baseline or pre- vs post-infusion ECGs, cycles 1 and 2
[2] = test system: P-gp-overexpressing cell lines; settings: cited from earlier work
[3] = test system: paclitaxel-resistant xenografts; settings: cited from earlier work
[4] = mice; cited from earlier work
[5] = 0.8 mg/m^2 (n = 1), treatment-related
[6] = 1.5 mg/m^2 (n = 4), treatment-related
[7] = 2.5 mg/m^2 (n = 4), treatment-related
[8] = 3.7 mg/m^2 (n = 3), treatment-related
[9] = 5 mg/m^2 (n = 4), treatment-related
[10] = 6.5 mg/m^2 (n = 6), treatment-related
[11] = 8.5 mg/m^2 (n = 3), treatment-related
[12] = 11.3 mg/m^2 (n = 4), treatment-related
[13] = 15 mg/m^2 (n = 4), treatment-related
[14] = 20 mg/m^2 (n = 5), treatment-related
[15] = 27 mg/m^2 (n = 4), treatment-related
[16] = 36 mg/m^2 (n = 16), treatment-related
[17] = 42 mg/m^2 (n = 6), treatment-related
[18] = 48 mg/m^2 (n = 2), treatment-related

C/C1=C/C[C@@H](/C(C)=C/c2csc(C)n2)OC(=O)C[C@H](O)C(C)(C)C(=O)[C@H](C)[C@@H](O)[C@@H](C)/C=C/C1 [KOS-1584, (E)-9,10-didehydroepothilone D]
Dyspnea, grade 3 ([1]; 0.8 mg/m^2 (n = 1)): 1 no. of patients
Anemia, grade 1/2 [1, 5]: 1 no. of patients
Anorexia, grade 1/2 [1, 5]: 1 no. of patients
Asthenia/fatigue, grade 3 [1, 5]: 1 no. of patients
Constipation, grade 1/2 [1, 5]: 1 no. of patients
Diarrhea, grade 1/2 [1, 5]: 1 no. of patients
Nausea/vomiting, grade 1/2 [1, 5]: 1 no. of patients
Anorexia, grade 1/2 [1, 6]: 2 no. of patients
Arthralgia/myalgia, grade 1/2 [1, 6]: 1 no. of patients
Back pain, grade 1/2 [1, 6]: 2 no. of patients
Diarrhea, grade 1/2 [1, 6]: 2 no. of patients
Dyspnea, grade 1/2 [1, 6]: 1 no. of patients
Lymphopenia, grade 1/2 [1, 6]: 1 no. of patients
Nausea/vomiting, grade 1/2 [1, 6]: 1 no. of patients
Peripheral neuropathy, grade 1/2 [1, 6]: 2 no. of patients
Pleural effusion, grade 1/2 [1, 6]: 1 no. of patients
Abdominal pain, grade 1/2 [1, 7]: 2 no. of patients
Anorexia, grade 1/2 [1, 7]: 2 no. of patients
Asthenia/fatigue, grade 1/2 [1, 7]: 4 no. of patients
Constipation, grade 1/2 [1, 7]: 2 no. of patients
Diarrhea, grade 1/2 [1, 7]: 2 no. of patients
Dry skin/rash, grade 1/2 [1, 7]: 1 no. of patients
Nausea/vomiting, grade 1/2 [1, 7]: 2 no. of patients
Peripheral neuropathy, grade 1/2 [1, 7]: 1 no. of patients
Abdominal pain, grade 1/2 [1, 8]: 1 no. of patients
Anemia, grade 1/2 [1, 8]: 1 no. of patients
Arthralgia/myalgia, grade 1/2 [1, 8]: 1 no. of patients
Asthenia/fatigue, grade 1/2 [1, 8]: 1 no. of patients
Diarrhea, grade 1/2 [1, 8]: 2 no. of patients
Dizziness, grade 1/2 [1, 8]: 1 no. of patients
Nausea/vomiting, grade 1/2 [1, 8]: 1 no. of patients
Peripheral neuropathy, grade 1/2 [1, 8]: 1 no. of patients
Anorexia, grade 1/2 [1, 9]: 1 no. of patients
Dizziness, grade 1/2 [1, 9]: 1 no. of patients
Edema, grade 1/2 [1, 9]: 1 no. of patients
Nausea/vomiting, grade 1/2 [1, 9]: 1 no. of patients
Dyspnea, grade 3 ([1]; 6.5 mg/m^2 (n = 6)): 1 no. of patients
Anemia, grade 1/2 [1, 10]: 1 no. of patients
Asthenia/fatigue, grade 1/2 [1, 10]: 2 no. of patients
Diarrhea, grade 1/2 [1, 10]: 1 no. of patients
Dizziness, grade 1/2 [1, 10]: 2 no. of patients
Nausea/vomiting, grade 1/2 [1, 10]: 1 no. of patients
Pleural effusion, grade 1/2 [1, 10]: 1 no. of patients
Asthenia/fatigue, grade 1/2 [1, 11]: 1 no. of patients
Edema, grade 1/2 [1, 11]: 1 no. of patients
Peripheral neuropathy, grade 1/2 [1, 11]: 1 no. of patients
Anorexia, grade 1/2 [1, 12]: 1 no. of patients
Asthenia/fatigue, grade 1/2 [1, 12]: 1 no. of patients
Asthenia/fatigue, grade 3 [1, 12]: 1 no. of patients
Constipation, grade 1/2 [1, 12]: 1 no. of patients
Headache, grade 1/2 [1, 12]: 1 no. of patients
Nausea/vomiting, grade 1/2 [1, 12]: 1 no. of patients
Abdominal pain, grade 3 [1, 13]: 1 no. of patients
Anemia, grade 1/2 [1, 13]: 1 no. of patients
Asthenia/fatigue, grade 3 [1, 13]: 1 no. of patients
Diarrhea, grade 1/2 [1, 13]: 1 no. of patients
Edema, grade 1/2 [1, 13]: 1 no. of patients
Nausea/vomiting, grade 1/2 [1, 13]: 2 no. of patients
Peripheral neuropathy, grade 1/2 [1, 13]: 1 no. of patients
Alopecia, grade 1/2 [1, 14]: 1 no. of patients
Anemia, grade 1/2 [1, 14]: 1 no. of patients
Anorexia, grade 1/2 [1, 14]: 1 no. of patients
Asthenia/fatigue, grade 1/2 [1, 14]: 1 no. of patients
Constipation, grade 1/2 [1, 14]: 1 no. of patients
Diarrhea, grade 1/2 [1, 14]: 1 no. of patients
Lymphopenia, grade 1/2 [1, 14]: 1 no. of patients
Nausea/vomiting, grade 1/2 [1, 14]: 2 no. of patients
Peripheral neuropathy, grade 1/2 [1, 14]: 2 no. of patients
Dyspnea, grade 3 ([1]; 27 mg/m^2 (n = 4)): 1 no. of patients
Alopecia, grade 1/2 [1, 15]: 1 no. of patients
Anemia, grade 1/2 [1, 15]: 2 no. of patients
Anorexia, grade 1/2 [1, 15]: 1 no. of patients
Asthenia/fatigue, grade 1/2 [1, 15]: 4 no. of patients
Back pain, grade 1/2 [1, 15]: 1 no. of patients
Chest pain, grade 1/2 [1, 15]: 1 no. of patients
Constipation, grade 1/2 [1, 15]: 1 no. of patients
Diarrhea, grade 1/2 [1, 15]: 1 no. of patients
Dizziness, grade 1/2 [1, 15]: 1 no. of patients
Dry skin/rash, grade 1/2 [1, 15]: 1 no. of patients
Headache, grade 1/2 [1, 15]: 3 no. of patients
Nausea/vomiting, grade 1/2 [1, 15]: 1 no. of patients
Peripheral neuropathy, grade 1/2 [1, 15]: 4 no. of patients
incidence of diarrhea at RP2D, first figure ([1]; 36 mg/m^2): 31%
incidence of diarrhea at RP2D, second figure ([1]; 36 mg/m^2): 6%
Alopecia, grade 1/2 [1, 16]: 4 no. of patients
Anemia, grade 1/2 [1, 16]: 2 no. of patients
Anorexia, grade 1/2 [1, 16]: 3 no. of patients
Arthralgia/myalgia, grade 3 [1, 16]: 1 no. of patients
Asthenia/fatigue, grade 3 [1, 16]: 1 no. of patients
Back pain, grade 1/2 [1, 16]: 1 no. of patients
Back pain, grade 3 [1, 16]: 1 no. of patients
Chest pain, grade 1/2 [1, 16]: 2 no. of patients
Chest pain, grade 3 [1, 16]: 1 no. of patients
Constipation, grade 1/2 [1, 16]: 1 no. of patients
Diarrhea, grade 1/2 [1, 16]: 4 no. of patients
Diarrhea, grade 3 [1, 16]: 1 no. of patients
Dry skin/rash, grade 1/2 [1, 16]: 1 no. of patients
Edema, grade 1/2 [1, 16]: 2 no. of patients
Headache, grade 1/2 [1, 16]: 1 no. of patients
Peripheral neuropathy, grade 1/2 [1, 16]: 11 no. of patients
Thrombocytopenia, grade 1/2 [1, 16]: 1 no. of patients
Abdominal pain, grade 3 [1, 17]: 2 no. of patients
Alopecia, grade 1/2 [1, 17]: 2 no. of patients
Anemia, grade 3 [1, 17]: 1 no. of patients
Anorexia, grade 1/2 [1, 17]: 2 no. of patients
Asthenia/fatigue, grade 1/2 [1, 17]: 3 no. of patients
Asthenia/fatigue, grade 3 [1, 17]: 1 no. of patients
Constipation, grade 3 [1, 17]: 1 no. of patients
Diarrhea, grade 1/2 [1, 17]: 3 no. of patients
Diarrhea, grade 3 [1, 17]: 2 no. of patients
Dizziness, grade 1/2 [1, 17]: 2 no. of patients
Lymphopenia, grade 3 [1, 17]: 1 no. of patients
Nausea/vomiting, grade 1/2 [1, 17]: 3 no. of patients
Neutropenia, grade 3 [1, 17]: 1 no. of patients
Peripheral neuropathy, grade 1/2 [1, 17]: 4 no. of patients
Peripheral neuropathy, grade 3 [1, 17]: 2 no. of patients
Thrombocytopenia, grade 1/2 [1, 17]: 1 no. of patients
Anorexia, grade 1/2 [1, 18]: 1 no. of patients
Arthralgia/myalgia, grade 3 [1, 18]: 1 no. of patients
Asthenia/fatigue, grade 1/2 [1, 18]: 1 no. of patients
Back pain, grade 3 [1, 18]: 1 no. of patients
Nausea/vomiting, grade 3 [1, 18]: 1 no. of patients
Peripheral neuropathy, grade 3 [1, 18]: 1 no. of patients
frequency of all-grade peripheral neuropathy ([1]; RP2D 36 mg/m^2): 69%
frequency of grade ≥3 peripheral neuropathy ([1]; RP2D 36 mg/m^2): 0%
patients who discontinued therapy due to adverse effects ([1]; all cohorts): Five
patients with positive FOBT or hematochezia ([1]; all cohorts): Five
myelosuppression ([1]; heavily pretreated patients): very low incidence of myelosuppression
recommended phase II dose (RP2D) ([1]; iv every 3 weeks): 36 mg/m^2
maximum tolerated dose (MTD) ([1]; iv over 3 h every 3 weeks): 36 mg/m^2
hypersensitivity reactions ([1]; no routine premedication): not associated with any hypersensitivity reactions
mean percentage of MBF (tubulin in PBMCs; 1 h after infusion): 50%
mean percentage of MBF (tubulin in PBMCs; 24 h after infusion): 26%
E0 of MBF (tubulin in PBMCs; sigmoidal maximum effect model): 3.69%
EC50 of plasma concentration for MBF (tubulin in PBMCs; sigmoidal maximum effect model): 0.0241 µg/mL
Emax of MBF (tubulin in PBMCs; sigmoidal maximum effect model): 52.7%
effect on QTcB interval (QTcB interval): did not show any effects
potency relative to paclitaxel [2]: more potent than paclitaxel
anti-tumor activity [3]: anti-tumor activity has been demonstrated
penetration of the BBB [4]: did penetrate the BBB
